The target in this experiment is Chymotrypsinogen A (Bos taurus) (UniProt P00766). Put plainly: In vitro binding affinity towards alpha-chymotrypsin from bovine pancreas.

Usually Ki stands for a dissociation constant, usually derived from enzyme kinetics or from competition with a known ligand. Turning to `O=c1ccc(-c2ccccc2)c(Cl)o1` [6-Chloro-5-phenyl-pyran-2-one], the affinity, expressed as Ki, was 1.3 µM.

Compound `O=c1oc(Cl)ccc1-c1ccccc1` [6-Chloro-3-phenyl-pyran-2-one] registered an inhibition constant (Ki) of 0.27 µM.

As for `CCCCc1ccc(=O)oc1Cl` [5-Butyl-6-chloro-pyran-2-one], the Ki is 3.9 µM.

As to `CCc1ccc(=O)oc1Cl` [6-Chloro-5-ethyl-pyran-2-one], the affinity corresponds to a Ki of 5.6 µM. The Ki values of the last two compounds are within 1.5-fold of each other.

For the compound `O=c1ccc(-c2ccccc2)co1` [5-Phenyl-pyran-2-one], the Ki was 75 µM.

The values above are taken from BindingDB's records for doi:10.1021/jm00157a007 (1987).
